Assay results taken from patent publication US7217413B1, “Use of novel agents inducing cell death in synergy with interferons” (priority 1998, dated 2007).
Residues, ends and D or L forms follow the SMILES beside them. *: point of attachment. Cbz = O=C(OCc1ccccc1)*; CH2F = FC*

Legend:
REF (T) PML cells [1] = assay: TUNEL test of cell death induced by IFNα; type: cell-based, rat; settings: for cell death evaluated by TUNEL (positive TUNEL signal): with 1 000 U/ml of IFNα
Experimental: (§1) The REF (T) and MEF (T) cells are rat and mouse embryonic fibroblasts immortalized by an SV4DT expression vector. […] For clonogenicity tests, the cells were transfected with 10 μg of SRαtkneo-PML or SRαkneo on culture dishes 10 cm in diameter and selected with neomycin (500 μg/ml). To obtain inducible clones, a pool of RET (T) cells was cotransfected with the plasmid pKSmMt-PML and a hygromycin resistance vector (DSP-Hygro). The resistant colonies were examined for the expression of PML after four hours of treatment with ZnCl2 (150 μM) and subjected to a second cycle of cloning by limiting dilution. Inducible CHO clones were constructed in a similar manner. The monocytes were prepared according to the method of Estaquier et al., 1997. Etoposide (used at 100 μM for 16 to 24 hours) was obtained from Biomol Research Laboratories, zVAD (benzyloxycarbonyl-Val-Ala-Asp fluoromethyl ketone, used at 250 μg/ml) is marketed by Bachem and rat IFNα by Access BioMedical. The human α-interferon was provided by Schering-Plough. The antibodies against the human PML protein are described in the article by Daniel et al., 1993. The Western blot experiments with the endogenous rat PML protein were carried out with the monoclonal antibody 5E10 which detects both rat PML and human PML.
The cells were treated for 2 hours with 150 μM of ZnCl2 (unless otherwise stated) in the presence or absence of heat-inactivated foetal calf serum, and then the cells were washed and incubated in a ZnCl2-free medium. The TUNEL test was carried out according to the manufacturer's instructions (Boehringer Mannheim, kit for detection of cell death in situ), with the exception of the fixing step (4% formaldehyde in phosphate PBS buffer for 10 minutes). The cellular DNA content was evaluated by incubating for 10 minutes in propidium iodide at 50 μg/ml, in the presence of Rnase A at 100 μg/ml at 4° C. Analysis of the expression of phosphatidylserine on the outer sheet of the cell membranes was carried out using Annexin-V-fluos labelling (Boehringer Mannheim) and a loss of mitochondrial polarity with Rhodamin 123 (molecular probes) according to the manufacturer's instructions. The samples were analysed on a FACScan analyser (Lysis II software, Becton Dickinson). For the cleavage of the substrate with caspases, 5×10^6 cells were washed in PBS buffer, and incubated for one hour at 4° C. in 200 μl of lysis buffer (10 mM Hepes, pH 7.4, 2 mM EDTA, 2 mM DTT, 0.1% CHAPS). After centrifugation, 20 μl of supernatant and 180 μl of reaction buffer (100 mM Hepes, pH 7.4, 2% of glycerol, 5 mM DTT, 0.5 mM EDTA, 50 μM DEVD-pNA (Biomol Research Laboratories)) were mixed and the absorbence at 405 nm was measured after incubating for four hours at 37° C. The anti-PARP polyclonal antibody SA-252 is marketed by Biomol Research Laboratories.
The table below represents the cell death, evaluated by TUNEL, of REF (T) PML cells treated for two days with 1 000 U/ml of IFNα and 10^−6 M of As2O3 or of zVAD.

Primary monocytes = assay: Survival of primary monocytes exposed to α-interferon; type: cell-based
PML protein = assay: Western blot of PML protein expression and location on nuclear bodies; type: cell-based, rat; settings: REF (T) cells
Experimental: The REF (T) and MEF (T) cells are rat and mouse embryonic fibroblasts immortalized by an SV4DT expression vector. […] The Western blot experiments with the endogenous rat PML protein were carried out with the monoclonal antibody 5E10 which detects both rat PML and human PML.

REF (T) PML cells [2] = assay: TUNEL test of cell death triggered by PML (ZnCl2 induction); type: cell-based, rat
Experimental: as §1
The cells were treated for 2 hours with 150 μM of ZnCl2 (unless otherwise stated) in the presence or absence of heat-inactivated foetal calf serum, and then the cells were washed and incubated in a ZnCl2-free medium. The TUNEL test was carried out according to the manufacturer's instructions (Boehringer Mannheim, kit for detection of cell death in situ), with the exception of the fixing step (4% formaldehyde in phosphate PBS buffer for 10 minutes). The cellular DNA content was evaluated by incubating for 10 minutes in propidium iodide at 50 μg/ml, in the presence of Rnase A at 100 μg/ml at 4° C. […] The samples were analysed on a FACScan analyser (Lysis II software, Becton Dickinson). […] After centrifugation, 20 μl of supernatant and 180 μl of reaction buffer (100 mM Hepes, pH 7.4, 2% of glycerol, 5 mM DTT, 0.5 mM EDTA, 50 μM DEVD-pNA (Biomol Research Laboratories)) were mixed and the absorbence at 405 nm was measured after incubating for four hours at 37° C. […]
It is known that the execution of programmed cell death involves the proteolytic activation—of caspases which induce the phenotypic changes in apoptosis by cleavage of nuclear and cytoplasmic proteins (Salvesen et al., 1997). […] Unlike etoposide, no significant cleavage of the colorimetric caspase substrates, YVAD-pNa (class 1 caspase, Boehringer Mannheim) and DEVD-pNA (class 3 caspase, Boehringer Mannheim) after induction with PML could be detected (FIG. 2B).

REF (T) PML cells [3] = assay: Kinetics of synchronized cell death after ZnCl2 induction of PML; type: cell-based, rat
Experimental: The cells were treated for 2 hours with 150 μM of ZnCl2 (unless otherwise stated) in the presence or absence of heat-inactivated foetal calf serum, and then the cells were washed and incubated in a ZnCl2-free medium. The TUNEL test was carried out according to the manufacturer's instructions (Boehringer Mannheim, kit for detection of cell death in situ), with the exception of the fixing step (4% formaldehyde in phosphate PBS buffer for 10 minutes). The cellular DNA content was evaluated by incubating for 10 minutes in propidium iodide at 50 μg/ml, in the presence of Rnase A at 100 μg/ml at 4° C. Analysis of the expression of phosphatidylserine on the outer sheet of the cell membranes was carried out using Annexin-V-fluos labelling (Boehringer Mannheim) and a loss of mitochondrial polarity with Rhodamin 123 (molecular probes) according to the manufacturer's instructions. The samples were analysed on a FACScan analyser (Lysis II software, Becton Dickinson). […] After centrifugation, 20 μl of supernatant and 180 μl of reaction buffer (100 mM Hepes, pH 7.4, 2% of glycerol, 5 mM DTT, 0.5 mM EDTA, 50 μM DEVD-pNA (Biomol Research Laboratories)) were mixed and the absorbence at 405 nm was measured after incubating for four hours at 37° C. […]

[4] = treated for two days, 10^-6 M of As2O3 or of zVAD

IFNα
kinetics of cell death induction (REF (T) PML cells [1]; compared with ZnCl2 induction): same kinetics as 50 μM ZnCl2 | cell death evaluated by TUNEL (positive TUNEL signal) (REF (T) PML cells [1]; [4]): 42% | cell death evaluated by TUNEL (positive TUNEL signal) (REF (T) PML cells [1]; treated for two days, 10^-6 M of As2O3 or of zVAD, listed as α-interferon): 42% | time to complete disappearance of the cell culture (Primary monocytes; α-interferon alone (1 000 U/ml)): seven | levels of expression of PML (PML protein): induces rat PML

[Cl-].[Cl-].[Zn+2] [ZnCl2]
positive cells / positive TUNEL signal (REF (T) PML cells [2]; ZnCl2 alone): 45% | time to synchronized cell death of the whole cell population (REF (T) PML cells [3]; 50 μM of ZnCl2): 48 h | time to synchronized cell death of the whole cell population (REF (T) PML cells [3]; 150 μM of ZnCl2): six

COC(=O)C[C@H](NC(=O)[C@H](C)NC(=O)[C@@H](NC(=O)OCc1ccccc1)C(C)C)C(=O)CF [zVAD, benzyloxycarbonyl-Val-Ala-Asp(O-methyl) fluoromethyl ketone] (Cbz-Val-Ala-Asp(OMe)-CH2F)
effect on cell death induced by PML (REF (T) PML cells [2]; ZnCl2 induction, FIG. 1C): does not inhibit cell death induced by PML | effect on apoptosis induced by etoposide (REF (T) PML cells [2]; etoposide-treated cells, FIG. 1C): blocks apoptosis induced by etoposide | positive TUNEL signal (REF (T) PML cells [2]; zVAD and ZnCl2): 71% | cell death evaluated by TUNEL (positive TUNEL signal) (REF (T) PML cells [1]; [4]): 60% | cell death evaluated by TUNEL (REF (T) PML cells [1]; without IFNα, treated for two days, 10^-6 M of As2O3 or of zVAD): 5% | time to death of the whole cell population (Primary monocytes; zVAD added with α-interferon): ≤ 24 h | cell death with zVAD alone (Primary monocytes; zVAD alone after seven days, three cultures out of eleven): induced the death of part of the culture | cell death with zVAD alone (Primary monocytes; zVAD alone for 20 days, most of the primary cultures (8/11)): Little or no cell death | levels of expression of PML (PML protein): increased
